According to patent US20250262305A1 (Aegis Therapeutics, LLC, priority 2018, published 2025):
Where two headings read alike, the source gives them in different places.

Tests used:
[1] = clinical; conditions: human, in vivo, pH 4, tmax
Experimental: Study Design. A Phase 1, open-label, randomized, single-dose, two-treatment, crossover study was carried out that consisted of a screening period, baseline period, and an open-label treatment period. In the screening period, subjects underwent screening within 21 days prior to entering into the open-label treatment phase of the study.
Safety assessments were performed on each study day and subjects released after discharge assessments on Day 1. Subjects were followed for 6 hours after the administration of the last dose of study drug.
Plasma samples from all subjects that completed two periods of the study were analyzed. […] Actual sampling times were recorded.
(§1) Study Drugs and Administration.
(§2) Each 100 μL spray was administered to the left nostril via a commercially-available multiple dose nasal spray device marketed by Aptar Pharma. Priming of the device (activation 5 times) was done in a hood or priming box within 30 minutes prior to dosing the subject.
(§3) Pharmacokinetic Analysis.
Non-GCP pharmacokinetic analysis was performed using WinNonlin version 7.0. […] Baseline corrected Cmax was calculated from the uncorrected Cmax−PreDose concentration. Baseline corrected AUC0-t was calculated from the uncorrected AUC0-t−PreDose concentration×tlast. […] The point estimates and confidence limits will be exponentiated back to the original scale.

[2] = male, human, in vivo
Experimental: In the Screening Period, subjects underwent screening within 28 days prior to entering into the study.
as §1, §2
Participants. […] Plasma samples from all subjects that complete the study were analyzed.
as §3

[3] = single 0.3 mg doses, intranasal and intramuscular; healthy volunteers
[4] = cited from earlier work; for Cbaseline: Mean ± SD

With `CNC[C@H](O)c1ccc(O)c(O)c1` [Epinephrine, (R)-4-(1-Hydroxy-2-(methylamino)ethyl)benzene-1,2-diol] the Tmax [1] was 53 min, the rate of absorption [2] was “rapid, IM-injection-like rate of absorption in the first 20 minutes” and the adverse events [3] was “no related adverse events reported”. For the same compound, the Cbaseline ([4]; Intramuscular (IM) 0.3 mg) was 35 ± 23 pg/mL, the Cbaseline ([4]; Intranasal (IN) 5 mg) was 8 ± 6 pg/mL and the “clearance from the plasma” value ([4]; Srisawat's 5 mg intranasal formulation (FIG. 2)) was “cleared from the plasma almost entirely in about two hours”. For the same compound, the “blood level of epinephrine” value ([4]; intranasal dose level of 2.5 mg and below) was “no blood level of epinephrine” and the “systemic absorption of epinephrine via the IN route” value ([4]; intranasal, dose range of Srisawat (FIG. 1)) was “significant systemic absorption of epinephrine via the IN route was observed only at 5 mg”.
